These are literature values, as cited in US20050250828A1 (Entire Interest, priority 2004, published 2005).

The conditions of series [1]: oral administration.

On to `CCOc1nc2cccc(C(=O)O)c2n1Cc1ccc(-c2ccccc2-c2nnn[nH]2)cc1` [Candesartan, 2-ethoxy-1-[[2′-(1H-tetrazol-5-yl)biphenyl-4-yl]methyl]-1H-benzimidazole-7-carboxylic acid], for which, in series [1], the “absorption when administered orally” value is listed as “poorly absorbed”.

Consider `CCOc1nc2cccc(C(=O)OC(C)OC(=O)OC3CCCCC3)c2n1Cc1ccc(-c2ccccc2-c2nnn[nH]2)cc1` (racemic) [candesartan cilexetil, (±)-1-[[(cyclohexyloxy)carbonyl]oxy]ethyl-2-ethoxy-1-[[2′-(1H-tetrazol-5-yl)[1,1′biphenyl]-4-yl]methyl]-1H-benzimidazole-7-carboxylate], for which the solubility in methanol result (methanol) is reported as “sparingly soluble”. Besides, the solubility in water result (water) is “sparingly soluble”.
